According to ChEMBL document CHEMBL6103545, “Discovery of GS-2278, a Potent and Selective LPAR1 Antagonist for the Treatment of Idiopathic Pulmonary Fibrosis” (J Med Chem, 2025):
pEC50, pIC50: −log10 of the molar value.

Key:
[1] = Oral bioavailability in cynomolgus monkey at 5 mg/kg measured after 24 hrs by LC/MS/MS analysis; assay type: ADME, organism-based, Macaca fascicularis; settings: in vivo
Cytochrome P450 2C19 = Cytochrome P450 2C19 (Homo sapiens, UniProt P33261); experiment: Inhibition of CYP2C19 (unknown origin) using midazolam as substrate; assay type: ADME
Chain of Cytochrome P450 2C19 (P33261 whole entry): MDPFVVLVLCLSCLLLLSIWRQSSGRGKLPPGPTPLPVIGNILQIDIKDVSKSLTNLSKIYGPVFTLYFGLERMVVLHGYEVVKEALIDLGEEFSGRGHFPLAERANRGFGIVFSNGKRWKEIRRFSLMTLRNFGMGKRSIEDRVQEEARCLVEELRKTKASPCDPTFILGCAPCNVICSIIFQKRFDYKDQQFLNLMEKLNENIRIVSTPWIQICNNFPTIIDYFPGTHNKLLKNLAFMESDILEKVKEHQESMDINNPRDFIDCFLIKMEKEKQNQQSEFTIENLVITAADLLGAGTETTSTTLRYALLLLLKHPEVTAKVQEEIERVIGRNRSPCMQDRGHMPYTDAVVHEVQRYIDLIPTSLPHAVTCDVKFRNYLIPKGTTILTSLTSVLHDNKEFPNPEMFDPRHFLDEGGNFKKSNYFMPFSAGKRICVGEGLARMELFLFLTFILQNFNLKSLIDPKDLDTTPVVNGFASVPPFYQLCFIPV

[2] = Volume of distribution in Beagle dog at 1 mg/kg, iv measured after 24 hrs by LC/MS/MS analysis; assay type: ADME, organism-based, Canis lupus familiaris; settings: in vivo
BCRP (human) = experiment: Apparent permeability from basolateral to apical side of human BCRP transfected MDCK cells measured after 20 min by LC/MS/MS analysis; assay type: ADME, cell-based, Canis lupus familiaris; settings: dog
[3] = Plasma protein binding in female CD-1 mouse assessed as unbound fraction at 2 uM incubated for 24 hrs by LC-MS analysis; assay type: ADME, cell-free
[4] = Apparent permeability from apical to basolateral side in human Caco-2 cells at 10 uM; assay type: ADME, cell-based
[5] = Metabolic stability in cynomolgus monkey liver microsomes assessed as intrinsic clearance at 1 uM by LC/MS/MS analysis; assay type: ADME, Macaca fascicularis, Microsome; settings: read-out: CLH (converted)
[6] = AUC (0 to 24 hrs) in Beagle dog at 5 mg/kg, po measured after 24 hrs by LC/MS/MS analysis; assay type: ADME, organism-based, Canis lupus familiaris; settings: in vivo
Bile salt export pump = Bile salt export pump (Homo sapiens, UniProt O95342); experiment: Inhibition of BSEP in human hepatocyte by LC-MS analysis; assay type: cell-based
Chain of Bile salt export pump (O95342 whole entry): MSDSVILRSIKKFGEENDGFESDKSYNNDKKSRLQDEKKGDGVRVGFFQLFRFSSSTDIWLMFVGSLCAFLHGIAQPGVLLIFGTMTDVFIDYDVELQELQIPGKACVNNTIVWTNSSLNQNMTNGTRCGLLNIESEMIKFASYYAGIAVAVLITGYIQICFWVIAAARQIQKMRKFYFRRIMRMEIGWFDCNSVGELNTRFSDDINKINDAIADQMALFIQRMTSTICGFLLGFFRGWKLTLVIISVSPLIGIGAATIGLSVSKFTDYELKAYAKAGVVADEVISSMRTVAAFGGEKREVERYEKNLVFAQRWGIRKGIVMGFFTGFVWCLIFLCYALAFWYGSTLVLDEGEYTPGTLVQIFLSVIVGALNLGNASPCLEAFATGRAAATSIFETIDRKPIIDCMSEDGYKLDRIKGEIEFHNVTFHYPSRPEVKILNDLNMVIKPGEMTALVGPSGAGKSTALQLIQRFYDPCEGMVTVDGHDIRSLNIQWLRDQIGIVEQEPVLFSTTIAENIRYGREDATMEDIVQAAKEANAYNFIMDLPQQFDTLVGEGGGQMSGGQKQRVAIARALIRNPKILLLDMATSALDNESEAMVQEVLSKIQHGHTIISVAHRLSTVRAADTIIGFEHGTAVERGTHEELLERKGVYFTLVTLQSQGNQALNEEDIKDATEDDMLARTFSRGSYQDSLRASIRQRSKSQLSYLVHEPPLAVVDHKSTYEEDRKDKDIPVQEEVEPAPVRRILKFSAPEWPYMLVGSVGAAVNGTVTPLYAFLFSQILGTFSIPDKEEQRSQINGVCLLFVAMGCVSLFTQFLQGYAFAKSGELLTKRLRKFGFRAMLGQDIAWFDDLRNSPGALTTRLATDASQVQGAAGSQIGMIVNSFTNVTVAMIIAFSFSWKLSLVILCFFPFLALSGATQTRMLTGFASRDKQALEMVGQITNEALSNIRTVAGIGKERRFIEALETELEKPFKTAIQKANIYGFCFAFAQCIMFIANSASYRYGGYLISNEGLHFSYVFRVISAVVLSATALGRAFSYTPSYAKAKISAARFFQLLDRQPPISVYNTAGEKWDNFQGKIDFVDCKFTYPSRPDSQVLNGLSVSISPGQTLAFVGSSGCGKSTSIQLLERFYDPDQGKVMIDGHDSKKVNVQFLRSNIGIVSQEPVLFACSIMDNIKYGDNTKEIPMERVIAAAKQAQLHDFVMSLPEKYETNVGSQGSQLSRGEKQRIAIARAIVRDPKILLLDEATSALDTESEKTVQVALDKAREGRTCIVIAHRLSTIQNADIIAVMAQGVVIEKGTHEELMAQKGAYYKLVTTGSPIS

Cytochrome P450 3A4 = Cytochrome P450 3A4 (Homo sapiens, UniProt P08684); experiment: Inhibition of CYP3A4 (unknown origin) using testosterone as substrate; assay type: ADME
Chain of Cytochrome P450 3A4 (P08684 whole entry): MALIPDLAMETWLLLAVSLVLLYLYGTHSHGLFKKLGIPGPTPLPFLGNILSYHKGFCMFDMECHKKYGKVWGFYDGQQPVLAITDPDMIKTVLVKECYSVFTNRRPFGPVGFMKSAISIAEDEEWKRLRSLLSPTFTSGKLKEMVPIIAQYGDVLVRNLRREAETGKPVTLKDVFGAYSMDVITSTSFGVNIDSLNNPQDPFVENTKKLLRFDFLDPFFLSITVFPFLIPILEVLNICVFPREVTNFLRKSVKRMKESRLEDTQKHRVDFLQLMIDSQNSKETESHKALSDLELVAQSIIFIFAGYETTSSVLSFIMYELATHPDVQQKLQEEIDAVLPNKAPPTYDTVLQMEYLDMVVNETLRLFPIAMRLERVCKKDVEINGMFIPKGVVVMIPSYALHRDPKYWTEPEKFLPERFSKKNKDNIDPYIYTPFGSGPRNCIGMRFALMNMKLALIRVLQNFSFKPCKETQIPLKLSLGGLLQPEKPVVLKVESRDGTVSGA

[7] = target: T1, Lysophosphatidic acid receptor 3 (Homo sapiens, UniProt Q9UBY5); experiment: Antagonist activity at human LPA3 receptor overexpressed in CHO cells pre-incubated for 1 hr followed by LPA addition by fluorescence based FLIPR calcium assay; assay type: functional, cell-based
T1 sequence (Q9UBY5 whole entry): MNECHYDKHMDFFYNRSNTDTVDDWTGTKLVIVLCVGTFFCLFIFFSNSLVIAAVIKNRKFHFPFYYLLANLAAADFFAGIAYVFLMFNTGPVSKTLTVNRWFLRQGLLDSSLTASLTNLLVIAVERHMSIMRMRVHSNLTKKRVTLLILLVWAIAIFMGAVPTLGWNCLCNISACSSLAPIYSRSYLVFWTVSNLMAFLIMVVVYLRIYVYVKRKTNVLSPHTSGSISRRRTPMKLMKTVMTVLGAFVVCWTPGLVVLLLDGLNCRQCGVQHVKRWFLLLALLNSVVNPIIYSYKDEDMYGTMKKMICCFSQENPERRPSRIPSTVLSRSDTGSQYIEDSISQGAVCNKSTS

[8] = Toxicity in Beagle dog CNS at 60 mg/kg/day, po measured after 7 days by radiotelemetry; assay type: organism-based, Canis lupus familiaris; settings: in vivo, 168 h, time 7 day
[9] = Lipophilicity, logD of compound at pH 7.4; assay type: physicochemical; settings: buffer
Cytochrome P450 2B6 = target: T2, Cytochrome P450 2B6 (Homo sapiens, UniProt P20813); experiment: Inhibition of CYP2B6 (unknown origin) using midazolam as substrate; assay type: ADME
T2 sequence (P20813 whole entry): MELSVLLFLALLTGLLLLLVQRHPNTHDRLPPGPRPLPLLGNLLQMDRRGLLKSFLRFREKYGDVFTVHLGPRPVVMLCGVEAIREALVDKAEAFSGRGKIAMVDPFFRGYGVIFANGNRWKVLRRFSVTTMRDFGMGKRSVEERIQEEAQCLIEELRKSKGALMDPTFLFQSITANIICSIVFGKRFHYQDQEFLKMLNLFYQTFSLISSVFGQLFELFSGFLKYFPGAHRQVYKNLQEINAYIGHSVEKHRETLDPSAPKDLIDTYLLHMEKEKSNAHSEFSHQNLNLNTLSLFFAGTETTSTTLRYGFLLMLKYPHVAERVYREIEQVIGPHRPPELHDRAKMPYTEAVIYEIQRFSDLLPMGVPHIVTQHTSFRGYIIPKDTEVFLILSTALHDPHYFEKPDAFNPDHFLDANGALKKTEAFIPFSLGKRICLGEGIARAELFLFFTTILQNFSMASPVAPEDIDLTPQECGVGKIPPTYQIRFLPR

[10] = target: T3, Solute carrier organic anion transporter family member 1B3 (Homo sapiens, UniProt Q9NPD5); experiment: Inhibition of OATPB1P3 in human hepatocyte by LC-MS analysis; assay type: cell-based
T3 sequence (Q9NPD5 whole entry): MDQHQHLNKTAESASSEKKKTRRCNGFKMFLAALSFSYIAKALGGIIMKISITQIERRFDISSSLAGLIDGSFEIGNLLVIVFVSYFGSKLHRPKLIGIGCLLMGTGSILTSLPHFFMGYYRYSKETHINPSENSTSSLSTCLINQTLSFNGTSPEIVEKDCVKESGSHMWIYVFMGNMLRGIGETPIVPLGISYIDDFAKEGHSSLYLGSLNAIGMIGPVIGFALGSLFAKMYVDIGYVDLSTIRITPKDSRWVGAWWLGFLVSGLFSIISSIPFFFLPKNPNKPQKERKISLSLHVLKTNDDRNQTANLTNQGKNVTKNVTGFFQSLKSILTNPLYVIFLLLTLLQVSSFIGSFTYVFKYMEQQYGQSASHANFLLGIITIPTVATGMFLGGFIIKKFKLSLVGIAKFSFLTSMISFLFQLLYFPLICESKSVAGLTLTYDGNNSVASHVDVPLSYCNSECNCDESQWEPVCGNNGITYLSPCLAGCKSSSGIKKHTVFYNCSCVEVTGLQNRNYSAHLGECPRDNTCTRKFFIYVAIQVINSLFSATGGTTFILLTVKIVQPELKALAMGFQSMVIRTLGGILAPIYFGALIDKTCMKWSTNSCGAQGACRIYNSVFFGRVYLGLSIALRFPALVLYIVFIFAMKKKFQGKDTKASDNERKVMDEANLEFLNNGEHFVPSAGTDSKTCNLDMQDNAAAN

[11] = Oral bioavailability in male Sprague-Dawley rat at 5 mg/kg measured after 24 hrs by LC/MS/MS analysis; assay type: ADME, organism-based; settings: in vivo
[12] = Half-life in cynomolgus monkey at 5 mg/kg, po measured after 24 hrs by LC/MS/MS analysis; assay type: ADME, organism-based, Macaca fascicularis; settings: in vivo
[13] = Half-life in Beagle dog at 5 mg/kg, po measured after 24 hrs by LC/MS/MS analysis; assay type: ADME, organism-based, Canis lupus familiaris; settings: in vivo
[14] = Oral bioavailability in Beagle dog at 5 mg/kg measured after 24 hrs by LC/MS/MS analysis; assay type: ADME, organism-based, Canis lupus familiaris; settings: in vivo
[15] = target: Lysophosphatidic acid receptor 1 (Homo sapiens, UniProt Q92633); experiment: Antagonist activity at human LPA1 receptor overexpressed in CHO cells pre-incubated for 1 hr followed by LPA addition by fluorescence based FLIPR calcium assay; assay type: functional, cell-based
Chain of Lysophosphatidic acid receptor 1 (Q92633 whole entry): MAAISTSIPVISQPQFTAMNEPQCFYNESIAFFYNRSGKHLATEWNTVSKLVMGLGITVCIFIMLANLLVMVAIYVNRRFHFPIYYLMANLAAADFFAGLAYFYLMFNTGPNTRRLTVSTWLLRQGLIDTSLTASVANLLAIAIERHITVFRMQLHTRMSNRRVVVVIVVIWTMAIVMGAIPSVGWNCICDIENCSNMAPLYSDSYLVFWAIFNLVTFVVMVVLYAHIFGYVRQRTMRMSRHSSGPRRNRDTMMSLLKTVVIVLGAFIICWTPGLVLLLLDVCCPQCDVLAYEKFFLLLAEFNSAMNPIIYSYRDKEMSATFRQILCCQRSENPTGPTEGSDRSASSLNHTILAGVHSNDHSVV

[16] = Drug metabolism in Beagle dog hepatocyte assessed as (R)-1-(2,5-Difluoropyridin-3-yl)ethyl[4-(5-Aminopyridin-2-yl)-1-methyl-1H-1,2,3-triazol-5-yl]carbamate Hydrochloride metabolite formation at 1 uM by LC/MS/MS analysis; assay type: ADME, Canis lupus familiaris; settings: hepatocytes
[17] = Plasma protein binding in human assessed as unbound fraction at 2 uM incubated for 24 hrs by LC-MS analysis; assay type: ADME, cell-free

bioavailability [1]: 43% | inhibition (INH) (Cytochrome P450 2C19): Not_active | Vd [2]: 0.4 L/kg | Papp B→A at 20 min (BCRP (human)): 12 ×10⁻⁶ cm/s | fraction unbound at 24 h, 2 µM [3]: 0.066 | Papp A→B at 10 µM [4]: 0.4 ×10⁻⁶ cm/s | CLint scaled at 1 µM [5]: 7.5 mL/min/kg | AUC(0-t) at 24 h [6]: 54 µM·h | inhibition (INH) (Cytochrome P450 3A4): Time-dependent-effect | pEC50 [7]: < 5.00 | logD [9]: 2.7 | inhibition (INH) (Cytochrome P450 2B6): Not_active | pIC50 [10]: 4.82 | bioavailability [11]: 40% | half-life [12]: 3.9 h | half-life [13]: 2.9 h | bioavailability [14]: 49% | pEC50 [15]: 7.42 | Drug metabolism [16]: metabolite_detected | fraction unbound at 24 h, 2 µM [17]: 0.14
SMILES: C[C@@H](OC(=O)Nc1c(-c2ccc(NC(=O)c3cnc(C(F)(F)F)nc3)cn2)nnn1C)c1cc(F)cnc1F
pIC50 (Bile salt export pump): 4.66 | Activity [8]: Non-toxic
